{"source": "patent US8296071B2", "about": "“Methods for uniformly treating biological samples with electromagnetic radiation” (Terumo BCT Biotechnologies, LLC, priority 2004, dated 2012)", "key": {"[1]": {"system": "porcine parvovirus virus (PPV)", "assay": "Pathogen reduction of PPV in platelet and plasma-containing samples at two agitation rates", "settings": "net radiant energy by Equation V", "quoted_text": "Platelet and plasma-containing fluid samples having volumes selected over the range of about 200 ml to about 400 ml were illuminated in 1 liter fixed volume, partially transparent containers.\nElectromagnetic radiation was provided by two banks of six mercury vapor fluorescent lamps (model number XG25T8E; distributed by Ushio Nichia NP-803 phosphor) positioned above and below the fluid containers. This optical geometry defines two photoreactive layers having thicknesses equal to approximately 1 millimeter corresponding to the top and bottom illuminated surfaces of the fluid. […]\nBovine viral diarrhea virus (BVDV), porcine parvovirus virus (PPV), hepatitis A virus (HAV) and S. aureus bacteria were assayed before and after illumination using TCID50 or plating methods to provide quantitative measurements of the extent of pathogen reduction achieved.\nThe effect of agitation rate on the extent of pathogen reduction achieved upon treatment of fluids with electromagnetic radiation was also studied by varying the agitation rate provided to the sample container during illumination. Platelet and plasma-containing samples were exposed to net radiant energies calculated using Equation V. Samples were mixed during illumination using two different agitation rates: 120 cycles per minute and 20 cycles per minute."}, "[2]": {"system": "Bovine viral diarrhea virus (BVDV)", "assay": "Pathogen reduction of BVDV in platelet and plasma-containing fluids (photosensitizer + electromagnetic radiation), TCID50", "type": "cell-based", "settings": "fixed net radiant energy 3 Joules cm^−2", "description": "FIG. 4A provides a bar graph showing the average reduction of BVDV pathogen for fluid samples having two different volumes held in containers having nontransmissive labels and exposed to a fixed net radiant energy. […] FIG. 4B provides a bar graph showing the average reduction of BVDV pathogen for fluid samples having two different volumes held in containers not having nontransmissive labels and exposed to a fixed net radiant energy equal to 3 Joules cm^−2. […] The error bars shown in FIGS. 4A and 4B correspond to standard deviations (1σ) corresponding to six independent measurements at each volume."}}}
{"substance": "7,8-dimethyl-10-ribityl isoalloxazine", "values": [{"measurement": "log decrease in the biological activity of PPV pathogens", "setting": "[1]; agitation rate 20 cycles per minute", "result": 0.72, "unit": "log"}, {"measurement": "log decrease in the biological activity of PPV pathogens", "setting": "[1]; agitation rate 120 cycles per minute", "result": 4.65, "unit": "log"}, {"measurement": "average reduction of BVDV pathogen", "setting": "[2]; about 230 ml sample, containers with nontransmissive labels", "result": "about 2.0 log"}, {"measurement": "average reduction of BVDV pathogen", "setting": "[2]; about 230 ml sample, containers without nontransmissive labels", "result": "about 2.3 log"}, {"measurement": "average reduction of BVDV pathogen", "setting": "[2]; about 280 ml sample, containers with nontransmissive labels", "result": "about 1.4 log"}, {"measurement": "average reduction of BVDV pathogen", "setting": "[2]; about 280 ml sample, containers without nontransmissive labels", "result": "about 1.9 log"}]}
